Data from ChEMBL document CHEMBL1128123, “Inhibitors of acyl-CoA: Cholesterol O-acyl transferase (ACAT) as hypocholesterolemic agents. 12. Syntheses and biological activity of structurally novel tetrazole amides” (Bioorg Med Chem Lett, 1995).

Experiments:
[1] = species on record: Rattus norvegicus; assay: Percent change in total cholesterol in cholic acid (0.5%)-cholesterol (1.5%)-peanut oil (5.5%)-fed rats; assay type: functional
[2] = target: T1, Sterol O-acyltransferase 1 (Rattus norvegicus, UniProt O70536); assay: Concentration required for the in vitro inhibition of Acyl coenzyme A:cholesterol acyltransferase (ACAT) in liver microsomes isolated from cholesterol-fed rats; set-up: species or system Microsome
T1 sequence (O70536 whole entry): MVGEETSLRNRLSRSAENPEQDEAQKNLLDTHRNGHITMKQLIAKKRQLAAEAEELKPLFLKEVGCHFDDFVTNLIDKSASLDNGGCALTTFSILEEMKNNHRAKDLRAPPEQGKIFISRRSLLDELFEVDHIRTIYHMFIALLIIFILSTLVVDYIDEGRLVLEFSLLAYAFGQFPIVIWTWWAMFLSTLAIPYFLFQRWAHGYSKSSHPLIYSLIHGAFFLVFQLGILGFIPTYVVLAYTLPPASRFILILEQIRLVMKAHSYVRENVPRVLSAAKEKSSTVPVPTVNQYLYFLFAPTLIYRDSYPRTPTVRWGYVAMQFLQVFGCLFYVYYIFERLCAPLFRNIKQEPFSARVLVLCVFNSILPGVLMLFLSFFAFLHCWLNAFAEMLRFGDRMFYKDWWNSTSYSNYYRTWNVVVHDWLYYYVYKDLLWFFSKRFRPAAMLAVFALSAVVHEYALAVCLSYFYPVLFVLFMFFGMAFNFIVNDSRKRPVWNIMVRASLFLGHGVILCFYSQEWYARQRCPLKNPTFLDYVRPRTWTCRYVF

[3] = target: T2, Acyl-CoA:cholesterol acyltransferase (Oryctolagus cuniculus, UniProt Q95214); assay: Concentration required for the in vitro inhibition of Acyl coenzyme A:cholesterol acyltransferase (ACAT) in intestinal microsomes isolated from cholesterol-fed rabbits; set-up: species or system Intestine
T2 sequence (Q95214 whole entry): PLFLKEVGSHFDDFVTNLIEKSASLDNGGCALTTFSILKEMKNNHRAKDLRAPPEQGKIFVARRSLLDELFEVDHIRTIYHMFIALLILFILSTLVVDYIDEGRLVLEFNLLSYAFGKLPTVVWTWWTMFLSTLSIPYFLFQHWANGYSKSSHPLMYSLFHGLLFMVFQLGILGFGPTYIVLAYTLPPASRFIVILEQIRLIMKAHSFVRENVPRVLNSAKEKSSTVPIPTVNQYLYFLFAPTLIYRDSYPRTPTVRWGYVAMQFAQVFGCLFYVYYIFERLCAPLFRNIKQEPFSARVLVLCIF

Structure (SMILES)	IC50 [2]	IC50 [3]	Change TC [1]
CCCCCCCCCCCCn1nnnc1C(NC(=O)c1ccc(F)cc1F)c1ccccc1 (configuration not stated)	380 nM	–	-23%
CCCCCCCCCCCCn1nnc(C(NC(=O)c2c(C(C)C)cccc2C(C)C)c2ccccc2)n1 (configuration not stated)	810 nM	–	2%
CCCCCCCCCCCCn1nnc(C(NC(=O)c2ccc(Cl)cc2)c2ccccc2)n1 (configuration not stated)	440 nM	–	–
CCCCCCCCCCC(C)(C)C(=O)Nc1c(OC)cc(OC)cc1OC [CL-976]	–	–	-73%
CCCCCCCCCCCCn1nnc(C(NC(=O)c2ccc(F)cc2F)c2ccccc2)n1 (configuration not stated)	490 nM	–	-10%
CCCCCCCCCCCCn1nnc(C(NC(=O)c2c(OC)cc(OC)cc2OC)c2ccccc2)n1 (configuration not stated)	1700 nM	–	-36%
CCCCCCCCCCCCn1nnnc1C(NC(=O)c1c(Cl)cccc1Cl)c1ccccc1 (configuration not stated)	380 nM	–	-31%
CCCCCCCCCCCCn1nnc(C(NC(=O)c2ccc(C)cc2)c2ccccc2)n1 (configuration not stated)	510 nM	–	-4%
CCCCCCCC/C=C\CCCCCCCCNC(=O)c1c(OC)cc(OC)cc1OC	9400 nM	–	–
CCCCCCCCCCCCn1nnc(C(NC(=O)c2ccccc2OC)c2ccccc2)n1 (configuration not stated)	650 nM	–	-28%
CCCCCCCCCCC(C)(C)NC(=O)c1c(OC)cc(OC)cc1OC	> 10000 nM	–	-10%
CCCCCCCCCCCCn1nnc(C(NC(=O)c2ccc(OC)cc2)c2ccccc2)n1 (configuration not stated)	600 nM	–	-34%
CCCCCCCCCCCCCCCn1nnc(C(NC(=O)c2c(C)cccc2C)c2ccccc2)n1 (configuration not stated)	–	–	-14%
CCCCCCCCCCCCn1nnc(C(NC(=O)c2c(Cl)cccc2Cl)c2ccccc2)n1 (configuration not stated)	460 nM	–	-26%
CCCCCCCn1nnc(C(NC(=O)c2c(C)cccc2C)c2ccccc2)n1 (configuration not stated)	–	–	-13%
CCCCCCCCCCCCn1nnc(C(NC(=O)c2ccc(C(F)(F)F)cc2)c2ccccc2)n1 (configuration not stated)	850 nM	–	-10%
CCCCCCCCCCCCn1nnc(C(NC(=O)c2ccc([N+](=O)[O-])cc2)c2ccccc2)n1 (configuration not stated)	540 nM	–	8%

More lines, main results first:

IC50 [2]	IC50 [3]	Structure (SMILES)	Change TC [1]
190 nM	–	CCCCCCCCCCCCn1nnnc1C(NC(=O)c1cccc([N+](=O)[O-])c1)c1ccccc1 (configuration not stated)	-31%
80 nM	–	CCCCCCCCCCCCn1nnc(C(NC(=O)c2cccc([N+](=O)[O-])c2)c2ccccc2)n1 (configuration not stated)	-33%
350 nM	–	CCCCCCCCCCCCn1nnc(C(NC(=O)c2ccccc2)c2ccccc2)n1 (configuration not stated)	-5%
350 nM	–	CCCCCCCCCCCCn1nnnc1C(NC(=O)c1ccccc1C(F)(F)F)c1ccccc1 (configuration not stated)	-12%
310 nM	110 nM	CCCCCCCCCCCCn1nnc(C(NC(=O)c2c(C)cccc2C)c2ccccc2)n1 (configuration not stated)	-40%
80 nM	–	CCCCCCCCCCCCn1nnc(C(NC(=O)c2ccnc(SC)c2)c2ccccc2)n1 (configuration not stated)	-68%
250 nM	–	CCCCCCCCCCCCn1nnc(C(NC(=O)c2cccc(Cl)c2)c2ccccc2)n1 (configuration not stated)	3%
180 nM	–	CCCCCCCCCCCCn1nnnc1C(NC(=O)c1c(C)cccc1C)c1ccccc1 (configuration not stated)	-57%
140 nM	–	CCCCCCCCCCCCn1nnnc1C(NC(=O)c1ccnc(SC)c1)c1ccccc1 (configuration not stated)	-37%
120 nM	–	CCCCCCCCCCCCn1nnc(C(NC(=O)c2ccccc2C(F)(F)F)c2ccccc2)n1 (configuration not stated)	-15%
240 nM	–	CCCCCCCCCCCCn1nnc(C(NC(=O)c2ccccc2[N+](=O)[O-])c2ccccc2)n1 (configuration not stated)	-27%
